{"source": "the supplement of paper PMC10307832", "assay_in_all_cases": "relative viability (nuclei count vs DMSO), 5 days (fraction); higher = more cells survive", "key": {"[1]": {"compound": "CC1=C(C=C(C=C1)NC(=O)C2=CC(=CC=C2)C(C)(C)C#N)NC3=CC4=C(C=C3)N=CN(C4=O)C [AZ628] + O=C(CCCCCCC(=O)Nc1ccccc1)NO [Vorinostat] (partner 1 µM)", "method_in_brief": "(§1)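 Nuclei were stained with Hoechst during a one-step fixation (final 0.05% Triton X-100, 1% formaldehyde, 1 ug/ml Hoechst) carried out 5 days after dosing, then counted on 4× images. The cells, lung cancer lines in 1536-well plates, had been dosed by pin tool the day after seeding with one drug alone or a fixed anchor-drug dose plus five library-drug doses (not always all listed) in √10 steps. Relative viability is the nuclei count in treated wells divided by that in vehicle wells, and each value is the median of duplicate plates.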"}, "[2]": {"compound": "C[As](C)SC[C@H](NC(=O)CC[C@H](N)C(=O)O)C(=O)NCC(=O)O [Darinaparsin] + COc1cccc2cc(-c3nc([C@H]4CC[C@H](C(=O)O)CC4)n4ncnc(N)c34)[nH]c12 [OSI-027] (partner 0.5 µM)", "method_in_brief": "as §1"}, "[3]": {"compound": "CC1=C(C=C(C=C1)NC(=O)C2=CC(=CC=C2)C(C)(C)C#N)NC3=CC4=C(C=C3)N=CN(C4=O)C [AZ628] + Cc1nc(Nc2ncc(C(=O)Nc3c(C)cccc3Cl)s2)cc(N2CCN(CCO)CC2)n1 [Dasatinib] (partner 0.075 µM)", "method_in_brief": "as §1"}, "[4]": {"compound": "C1CC2=C(C1)C=C(C=C2)OC3=NC(=C4C(=N3)N(C=N4)CC5=CC=C(C=C5)C6=CC=CC=C6)N[C@@H](CC7=CC=CC=C7)CO [QS11] + N=C(N)NC(=N)NCCc1ccccc1 [Phenformin] (partner 250 µM)", "method_in_brief": "as §1"}}}
{"cell line": "LCLC-97TM1", "values": [{"measurement": "relative viability", "setting": "[1]; first compound 0.08 µM", "result": 1.03}, {"measurement": "relative viability", "setting": "[1]; first compound 0.253 µM", "result": 0.729}, {"measurement": "relative viability", "setting": "[1]; first compound 0.8 µM", "result": 0.82}, {"measurement": "relative viability", "setting": "[1]; first compound 2.53 µM", "result": 0.756}, {"measurement": "relative viability", "setting": "[1]; first compound 8 µM", "result": 0.13}, {"measurement": "relative viability", "setting": "[2]; first compound 0.08 µM", "result": 0.654}, {"measurement": "relative viability", "setting": "[2]; first compound 0.8 µM", "result": 0.468}, {"measurement": "relative viability", "setting": "[2]; first compound 2.53 µM", "result": 0.514}, {"measurement": "relative viability", "setting": "[2]; first compound 8 µM", "result": 0.615}, {"measurement": "relative viability", "setting": "[3]; first compound 0.08 µM", "result": 0.769}, {"measurement": "relative viability", "setting": "[3]; first compound 0.253 µM", "result": 0.791}, {"measurement": "relative viability", "setting": "[3]; first compound 0.8 µM", "result": 0.508}, {"measurement": "relative viability", "setting": "[3]; first compound 2.53 µM", "result": 0.477}, {"measurement": "relative viability", "setting": "[3]; first compound 8 µM", "result": 0.168}, {"measurement": "relative viability", "setting": "[4]; first compound 0.08 µM", "result": 0.371}, {"measurement": "relative viability", "setting": "[4]; first compound 0.253 µM", "result": 0.431}, {"measurement": "relative viability", "setting": "[4]; first compound 2.53 µM", "result": 0.354}, {"measurement": "relative viability", "setting": "[4]; first compound 8 µM", "result": 0.294}]}
